Measurements as given in ChEMBL document CHEMBL1201862, “PubChem BioAssay data set” (2004).
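Protocol summary: plate cells (96-well), add compound at 5 concentrations, incubate 48 h, interpolate endpoints linearly. Here, GI50 denotes the concentration required for 50% inhibition of growth.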 Calls of active or inactive are those of the source. Cut-off read from the data, not from the text of the source: active = GI50 up to about 1.1 µM and inactive = higher.

Columns and labels:
Assay in all cases: NCI anticancer screen, dose series, 48 h
NCI-H226 = system: NCI-H226
A549 = system: A549
U-251 = system: U-251
KM-20L2 = system: KM-20L2
SF-539 = system: SF-539
XF498 = system: XF498
UACC-257 = system: UACC-257
CAKI-1 = system: CAKI-1
LOX IMVI = system: LOX IMVI
IGROV-1 = system: IGROV-1
HOP-62 = system: HOP-62
SNB-78 = system: SNB-78
SNB-19 = system: SNB-19
M14 = system: M14
HCT-15 = system: HCT-15
RXF 393 = system: RXF 393
COLO 205 = system: COLO 205
UO-31 = system: UO-31
NCI-H23 = system: NCI-H23
OVCAR-4 = system: OVCAR-4
DMS-114 = system: DMS-114
A498 = system: A498
OVCAR-8 = system: OVCAR-8
RPMI-8226 = system: RPMI-8226
DMS-273 = system: DMS-273
OVCAR-5 = system: OVCAR-5
EKVX = system: EKVX
HCC 2998 = system: HCC 2998
KM12 = system: KM12
786-0 = system: 786-0
K562 = system: K562
ACHN = system: ACHN
M19-MEL = system: M19-MEL
HL-60 = system: HL-60
SK-MEL-2 = system: SK-MEL-2
HCT-116 = system: HCT-116
SK-MEL-5 = system: SK-MEL-5
TK-10 = system: TK-10
SW-620 = system: SW-620
SK-OV-3 = system: SK-OV-3
HT-29 = system: HT-29
Malme-3M = system: Malme-3M
SR = system: SR
SF-268 = system: SF-268
SK-MEL-28 = system: SK-MEL-28
DLD-1 = system: DLD-1
SN12C = system: SN12C
NCI-H460 = system: NCI-H460
MOLT-4 = system: MOLT-4
SF-295 = system: SF-295
SNB-75 = system: SNB-75
OVCAR-3 = system: OVCAR-3
CCRF-CEM = system: CCRF-CEM
UACC-62 = system: UACC-62
LXFL 529 = system: LXFL 529
NCI-H522 = system: NCI-H522

COC(=O)Cc1cc(=O)n2c3ccccc3n(C)c2c1C#N
GI50 (NCI-H226): > 100 µM (inactive)
GI50 (A549): > 100 µM (inactive)
GI50 (U-251): > 100 µM (inactive)
GI50 (KM-20L2): > 100 µM (inactive)
GI50 (SF-539): > 100 µM (inactive)
GI50 (XF498): > 100 µM (inactive)
GI50 (UACC-257): > 100 µM (inactive)
GI50 (CAKI-1): > 100 µM (inactive)
GI50 (LOX IMVI): > 100 µM (inactive)
GI50 (IGROV-1): > 100 µM (inactive)
GI50 (HOP-62): > 100 µM (inactive)
GI50 (SNB-78): > 100 µM (inactive)
GI50 (SNB-19): > 100 µM (inactive)
GI50 (M14): > 100 µM (inactive)
GI50 (HCT-15): > 100 µM
GI50 (RXF 393): > 100 µM (inactive)
GI50 (COLO 205): > 100 µM (inactive)
GI50 (UO-31): > 100 µM (inactive)
GI50 (NCI-H23): > 100 µM (inactive)
GI50 (OVCAR-4): > 100 µM (inactive)
GI50 (DMS-114): > 100 µM (inactive)
GI50 (A498): > 100 µM (inactive)
GI50 (OVCAR-8): > 100 µM (inactive)
GI50 (RPMI-8226): > 100 µM (inactive)
GI50 (DMS-273): > 100 µM (inactive)
GI50 (OVCAR-5): > 100 µM (inactive)
GI50 (EKVX): > 100 µM (inactive)
GI50 (HCC 2998): > 100 µM (inactive)
GI50 (KM12): > 100 µM (inactive)
GI50 (786-0): > 100 µM (inactive)
GI50 (K562): > 100 µM (inactive)
GI50 (ACHN): > 100 µM (inactive)
GI50 (M19-MEL): > 100 µM (inactive)
GI50 (HL-60): > 100 µM (inactive)
GI50 (SK-MEL-2): > 100 µM (inactive)
GI50 (HCT-116): > 100 µM (inactive)
GI50 (SK-MEL-5): 52.2 µM (inactive)
GI50 (TK-10): > 100 µM (inactive)
GI50 (SW-620): > 100 µM (inactive)
GI50 (SK-OV-3): > 100 µM (inactive)
GI50 (HT-29): > 100 µM (inactive)
GI50 (Malme-3M): > 100 µM (inactive)
GI50 (SR): > 100 µM (inactive)
GI50 (SF-268): > 100 µM (inactive)
GI50 (SK-MEL-28): > 100 µM (inactive)
GI50 (DLD-1): > 100 µM (inactive)
GI50 (SN12C): > 100 µM (inactive)
GI50 (NCI-H460): > 100 µM (inactive)
GI50 (MOLT-4): > 100 µM (inactive)
GI50 (SF-295): > 100 µM (inactive)
GI50 (SNB-75): 68.7 µM (inactive)
GI50 (OVCAR-3): > 100 µM (inactive)

CC1(C)CC(/C=C2/OC(=O)c3ccccc32)=C(C(N)=O)C(=O)O1
GI50 (NCI-H226): > 100 µM (inactive)
GI50 (A549): > 100 µM (inactive)
GI50 (U-251): > 100 µM (inactive)
GI50 (KM-20L2): > 100 µM (inactive)
GI50 (SF-539): > 100 µM (inactive)
GI50 (XF498): > 100 µM (inactive)
GI50 (UACC-257): > 100 µM (inactive)
GI50 (CAKI-1): > 100 µM (inactive)
GI50 (LOX IMVI): > 100 µM (inactive)
GI50 (IGROV-1): > 100 µM (inactive)
GI50 (HOP-62): > 100 µM (inactive)
GI50 (SNB-78): > 100 µM (inactive)
GI50 (SNB-19): > 100 µM (inactive)
GI50 (M14): > 100 µM (inactive)
GI50 (HCT-15): > 100 µM
GI50 (COLO 205): 30.8 µM (inactive)
GI50 (UO-31): 83.9 µM (inactive)
GI50 (NCI-H23): > 100 µM (inactive)
GI50 (OVCAR-4): 72.1 µM (inactive)
GI50 (DMS-114): > 100 µM (inactive)
GI50 (CCRF-CEM): > 100 µM (inactive)
GI50 (OVCAR-8): > 100 µM (inactive)
GI50 (RPMI-8226): > 100 µM (inactive)
GI50 (DMS-273): > 100 µM (inactive)
GI50 (OVCAR-5): > 100 µM (inactive)
GI50 (EKVX): > 100 µM (inactive)
GI50 (HCC 2998): > 100 µM (inactive)
GI50 (KM12): > 100 µM (inactive)
GI50 (786-0): > 100 µM (inactive)
GI50 (K562): > 100 µM (inactive)
GI50 (UACC-62): > 100 µM (inactive)
GI50 (M19-MEL): > 100 µM (inactive)
GI50 (SK-MEL-2): > 100 µM (inactive)
GI50 (HCT-116): > 100 µM (inactive)
GI50 (SK-MEL-5): > 100 µM (inactive)
GI50 (SW-620): > 100 µM (inactive)
GI50 (SK-OV-3): > 100 µM (inactive)
GI50 (HT-29): > 100 µM (inactive)
GI50 (LXFL 529): > 100 µM (inactive)
GI50 (Malme-3M): > 100 µM (inactive)
GI50 (SR): > 100 µM (inactive)
GI50 (SF-268): > 100 µM (inactive)
GI50 (SK-MEL-28): > 100 µM (inactive)
GI50 (DLD-1): > 100 µM (inactive)
GI50 (SN12C): > 100 µM (inactive)
GI50 (NCI-H522): > 100 µM (inactive)
GI50 (NCI-H460): > 100 µM (inactive)
GI50 (MOLT-4): > 100 µM (inactive)
GI50 (SF-295): > 100 µM (inactive)
GI50 (SNB-75): > 100 µM (inactive)
GI50 (OVCAR-3): > 100 µM (inactive)
